Data from patent US11767303B2, “Compounds and methods for inhibiting viral replication and methods of treating and preventing flaviviral infections” (priority 2020, dated 2023).
pEC50, pIC50: −log10 of the molar value.

tested on: not listed separately; experiment: Aqueous solubility; assay type: physicochemical; details: not given

SMILES	aqueous solubility
CN1CCC(Oc2ccc(Cl)cc2C(=O)Nc2ccc([N+](=O)[O-])cc2Cl)CC1 [HJC0381]	significantly improves the aqueous solubility
NCCCCOc1ccc(Cl)cc1C(=O)Nc1ccc([N+](=O)[O-])cc1Cl [HJC0431]	significantly improves the aqueous solubility

target: T1, DENV2 NS2B-NS3 protease (Dengue virus type 2, UniProt P29990); experiment: Protease inhibition assay (FRET peptide substrate); assay type: biochemical, Dengue virus serotype 2; details: Table 4, preliminary SAR; read-out: IC50-pro(DN2)
T1 construct: made in house
Method: Protease Inhibition Assay. The protease inhibition assay was performed using the refolded DENV2 NS3 fusion protein (50 nM) and a fluorescence resonance energy transfer (FRET) peptide substrate (100 μM) (Abz-RRRRSAG-nTyr (NeoBiolab)), as described previously. […] 13:e1006411 (2017); and Lang et al., “Analysis of Protein-Protein Interactions by Split Luciferase Complementation Assay,” Curr. Protoc. Toxicol. 82:e (2019), all of which are hereby incorporated by reference in their entirety. Substrate cleavage was monitored at excitation/emission wavelengths of 360 nm/420 nm (Abz substrate) by a BioTek Flx800. The rate of increase in relative fluorescence unit (RFU) over time was calculated in the linear range and normalized as a percent of the DMSO control. The IC50/CC50/EC50 was determined by fitting the dose-responsive curve with a non-linear regression function using the GraphPad Prism 8 (San Diego, Calif.). All experiments were performed in triplicates.
Next, the inhibition efficacy of these positive derivatives were evaluated against the viral NS2B-NS3 protease function as previously described. […] Previously, two versions of the NS3 protease were generated, the NS3 protease domain refolded from inclusion bodies and a soluble version of the NS3 protease domain fused to maltose-binding protein (MBP). […]

T1 sequence (P29990 1476-1654): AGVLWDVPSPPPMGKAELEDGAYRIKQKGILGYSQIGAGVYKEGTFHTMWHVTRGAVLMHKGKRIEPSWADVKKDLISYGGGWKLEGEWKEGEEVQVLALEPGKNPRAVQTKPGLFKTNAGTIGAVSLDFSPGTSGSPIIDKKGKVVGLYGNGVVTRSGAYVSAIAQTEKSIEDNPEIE

SMILES	pIC50
O=C(NC(Cc1ccccc1)C(=O)Nc1ccc([N+](=O)[O-])cc1Cl)c1cc(Cl)ccc1O (stereo not drawn) [JMX0285]	5.24
O=C(Nc1cc(F)cc(C(F)(F)F)c1)c1cccc([N+](=O)[O-])c1O [JMX0317]	5.08

same assay, conditions: refolded NS3; read-out: IC50-pro (DN2)

SMILES	pIC50
CN1CCC(Oc2ccc(Cl)cc2C(=O)Nc2ccc([N+](=O)[O-])cc2Cl)CC1 [HJC0381]	4.59
O=C(Nc1ccc([N+](=O)[O-])cc1Cl)c1cc(Cl)ccc1OC1CCNCC1 [HJC0125]	4.35
NCCCCOc1ccc(Cl)cc1C(=O)Nc1ccc([N+](=O)[O-])cc1Cl [HJC0431]	4.47
CN1CCN(CCOc2ccc(Cl)cc2C(=O)Nc2ccc([N+](=O)[O-])cc2Cl)CC1 [HJC0365]	< 4.22
NCCCOc1ccc(Cl)cc1C(=O)Nc1ccc([N+](=O)[O-])cc1Cl [HJC0308]	4.40

tested on: DENV2; experiment: Viral titer (plaque) reduction assay, DENV2 in A549 cells; assay type: cell-based, Dengue virus serotype 2; details: Dengue virus, DENV2; A549 cells, 48 hrs post-infection; read-out: EC50-DN2 (A549)
Method: Viral Titer Reduction Assay. A viral titer reduction assay was used to determine the compounds' effect on DENV2 and ZIKV strains, as described previously. […] Human A549 lung carcinoma cells and human primary neural progenitor cells were used, as described previously. […] 13:e1006411 (2017), which are hereby incorporated by reference in their entirety. All experiments were performed in triplicates.
A viral plaque reduction assay was performed next to evaluate the antiviral efficacy of these derivatives. Human lung carcinoma A549 cells were infected with DENV2 in the presence of a concentration series of derivatives or a dimethyl sulfoxide (DMSO) control, and viral titers were measured at 48 hrs post-infection, as described previously.

SMILES	pEC50
CN1CCC(Oc2ccc(Cl)cc2C(=O)Nc2ccc([N+](=O)[O-])cc2Cl)CC1 [HJC0381]	5.92
O=C(Nc1ccc([N+](=O)[O-])cc1Cl)c1cc(Cl)ccc1OC1CCNCC1 [HJC0125]	6.68
NCCCCOc1ccc(Cl)cc1C(=O)Nc1ccc([N+](=O)[O-])cc1Cl [HJC0431]	5.66
CN1CCN(CCOc2ccc(Cl)cc2C(=O)Nc2ccc([N+](=O)[O-])cc2Cl)CC1 [HJC0365]	5.19
NCCCOc1ccc(Cl)cc1C(=O)Nc1ccc([N+](=O)[O-])cc1Cl [HJC0308]	5.85

same assay, conditions: Dengue virus, DENV2; Table 4, preliminary SAR, A549 cells; read-out: EC50-DN2

SMILES	pEC50
CN1CCC(Oc2ccc(Cl)cc2C(=O)Nc2ccc([N+](=O)[O-])cc2Cl)CC1 [HJC0381]	5.92
NCCCCOc1ccc(Cl)cc1C(=O)Nc1ccc([N+](=O)[O-])cc1Cl [HJC0431]	5.66

same assay, conditions: Table 4, preliminary SAR, A549 cells; read-out: EC50-DN2

SMILES	pEC50
O=C(NC(Cc1ccccc1)C(=O)Nc1ccc([N+](=O)[O-])cc1Cl)c1cc(Cl)ccc1O (stereo not drawn) [JMX0285]	6.32
O=C(Nc1cc(F)cc(C(F)(F)F)c1)c1cccc([N+](=O)[O-])c1O [JMX0317]	6.70

tested on: not listed separately; experiment: WST-8 cell proliferation cytotoxicity assay; assay type: cell-based, human; details: human; A549 cells; read-out: CC50 (A549)
Method: (§1) Cytotoxicity Assay. […] All experiments were performed in triplicates.
(§2) To address this concern, next the compound cytotoxicity CC50 was measured using a WST-8 cell proliferation assay, as described previously.

SMILES	CC50 [µM]
CN1CCC(Oc2ccc(Cl)cc2C(=O)Nc2ccc([N+](=O)[O-])cc2Cl)CC1 [HJC0381]	91.1
O=C(Nc1ccc([N+](=O)[O-])cc1Cl)c1cc(Cl)ccc1OC1CCNCC1 [HJC0125]	50.2
NCCCCOc1ccc(Cl)cc1C(=O)Nc1ccc([N+](=O)[O-])cc1Cl [HJC0431]	28.4
CN1CCN(CCOc2ccc(Cl)cc2C(=O)Nc2ccc([N+](=O)[O-])cc2Cl)CC1 [HJC0365]	177
NCCCOc1ccc(Cl)cc1C(=O)Nc1ccc([N+](=O)[O-])cc1Cl [HJC0308]	17.7

tested on: A549 cells; experiment: WST-8 cell proliferation cytotoxicity assay; assay type: cell-based, human; details: Table 4, preliminary SAR, A549 cells; read-out: CC50
Method: as §1, §2

SMILES	CC50 [µM]
O=C(NC(Cc1ccccc1)C(=O)Nc1ccc([N+](=O)[O-])cc1Cl)c1cc(Cl)ccc1O (stereo not drawn) [JMX0285]	16.5
O=C(Nc1cc(F)cc(C(F)(F)F)c1)c1cccc([N+](=O)[O-])c1O [JMX0317]	20.4

tested on: ZIKV; experiment: Viral titer reduction assay, ZIKV in A549 cells; assay type: cell-based, Zika virus; details: Table 4, preliminary SAR, A549 cells; read-out: EC50-ZK
Method: Viral Titer Reduction Assay. A viral titer reduction assay was used to determine the compounds' effect on DENV2 and ZIKV strains, as described previously. […] Human A549 lung carcinoma cells and human primary neural progenitor cells were used, as described previously. […] All experiments were performed in triplicates.

SMILES	pEC50
O=C(NC(Cc1ccccc1)C(=O)Nc1ccc([N+](=O)[O-])cc1Cl)c1cc(Cl)ccc1O (stereo not drawn) [JMX0285]	6.52
O=C(Nc1cc(F)cc(C(F)(F)F)c1)c1cccc([N+](=O)[O-])c1O [JMX0317]	6.92

same assay, conditions: Zika virus, A549, read-out: EC50-ZK

SMILES	pEC50
CN1CCC(Oc2ccc(Cl)cc2C(=O)Nc2ccc([N+](=O)[O-])cc2Cl)CC1 [HJC0381]	5.41
NCCCCOc1ccc(Cl)cc1C(=O)Nc1ccc([N+](=O)[O-])cc1Cl [HJC0431]	6.44

same assay, conditions: Zika virus, A549, read-out: EC50-ZK (A549)

SMILES	pEC50
CN1CCC(Oc2ccc(Cl)cc2C(=O)Nc2ccc([N+](=O)[O-])cc2Cl)CC1 [HJC0381]	5.41
O=C(Nc1ccc([N+](=O)[O-])cc1Cl)c1cc(Cl)ccc1OC1CCNCC1 [HJC0125]	6.82
NCCCCOc1ccc(Cl)cc1C(=O)Nc1ccc([N+](=O)[O-])cc1Cl [HJC0431]	6.44
CN1CCN(CCOc2ccc(Cl)cc2C(=O)Nc2ccc([N+](=O)[O-])cc2Cl)CC1 [HJC0365]	5.22
NCCCOc1ccc(Cl)cc1C(=O)Nc1ccc([N+](=O)[O-])cc1Cl [HJC0308]	5.21

tested on: not listed separately; experiment: LogP; details: not given

SMILES	logP
CN1CCC(Oc2ccc(Cl)cc2C(=O)Nc2ccc([N+](=O)[O-])cc2Cl)CC1 [HJC0381]	2.38
NCCCCOc1ccc(Cl)cc1C(=O)Nc1ccc([N+](=O)[O-])cc1Cl [HJC0431]	3.9
O=C(NC(Cc1ccccc1)C(=O)Nc1ccc([N+](=O)[O-])cc1Cl)c1cc(Cl)ccc1O (stereo not drawn) [JMX0285]	3.84
O=C(Nc1cc(F)cc(C(F)(F)F)c1)c1cccc([N+](=O)[O-])c1O [JMX0317]	3.26

target: T2, DENV2 NS2B-NS3 interaction (Dengue virus type 2, UniProt P29990); experiment: Split luciferase complementation (SLC) NS2B-NS3 interaction assay; assay type: binding, Dengue virus serotype 2; details: concentration reducing 50% of SLC signal; read-out: IC50-SLC-(DN2)
T2 construct: GST (N); made in house
T2 sequence (P29990 1476-1654): as above

SMILES	pIC50
CN1CCC(Oc2ccc(Cl)cc2C(=O)Nc2ccc([N+](=O)[O-])cc2Cl)CC1 [HJC0381]	4.97
O=C(Nc1ccc([N+](=O)[O-])cc1Cl)c1cc(Cl)ccc1OC1CCNCC1 [HJC0125]	4.79
NCCCCOc1ccc(Cl)cc1C(=O)Nc1ccc([N+](=O)[O-])cc1Cl [HJC0431]	5.51
CN1CCN(CCOc2ccc(Cl)cc2C(=O)Nc2ccc([N+](=O)[O-])cc2Cl)CC1 [HJC0365]	4.88
NCCCOc1ccc(Cl)cc1C(=O)Nc1ccc([N+](=O)[O-])cc1Cl [HJC0308]	5.31

tested on: not given; experiment: not given; details: not told

SMILES	Perme. (cell permeability) [×10⁻⁶ cm/s]
O=C(NC(Cc1ccccc1)C(=O)Nc1ccc([N+](=O)[O-])cc1Cl)c1cc(Cl)ccc1O (stereo not drawn) [JMX0285]	0.25
O=C(Nc1cc(F)cc(C(F)(F)F)c1)c1cccc([N+](=O)[O-])c1O [JMX0317]	2.9
